Experiments:
Sup-B15 cells = assay: Mechanism of action: NMN rescue of viability; type: cell-based, human; settings: 200 μM NMN, 72 hours
Experimental: Sup-B15 cells (ATCC) were incubated in media lacking or containing 200 μM nicotinamide mononucleotide (NMN) (Sigma) in the absence or presence of inhibitor for 72 hours at 37° C./5% CO2 prior to viability determination using CellTiterGlo (Promega) per manufacturer's instruction.

NALM6 leukemia model = assay: NALM6 leukemia study (survival); type: in vivo, female CB17SCID/Crl mice; settings: i.p. twice daily for 35 days, compared with clofarabine
Experimental: 4-(1′-isopropyl-4-oxospiro[chroman-2,4′-piperidin]-6-yl)-N-((3-methylisoxazol-5-yl)methyl)benzamide was tested in the NALM6 leukemia model. […] 5×10^^6 NALM-6 cells were injected via tail vein into female CB17SCID/Crl mice (Charles River). One week later, 4-(1′-isopropyl-4-oxospiro[chroman-2,4′-piperidin]-6-yl)-N-((3-methylisoxazol-5-yl)methyl)benzamide was administered by i.p. injection twice daily for 35 days. Clofarabine was administered once daily by i.p. injection once daily for 5 days for four weeks. Study endpoint was survival time, and mice were sacrificed upon appearance of systemic signs of severe disease such as paralysis or cachexia.

primary human T cells = assay: Anti-proliferative activity on T cells (CD3/CD28 stimulated, CellTiterGlo); type: cell-based; settings: T-cell, 72 h, CD3/CD28 beads
Experimental: (§1) Fresh primary human T cells obtained from Analytical Biological Services (Wilmington, Del.) were diluted to 1×10^^6 cells per ml in AIM-V medium (Invitrogen), and stimulated with CD3/CD28 beads (Invitrogen) in the absence or presence of inhibitor for 72 hours at 37° C./5% CO2 prior to viability determination using CellTiterGlo (Promega) per manufacturer's instruction.
(§2) The 50% inhibitory concentration (IC50) is the concentration at which 50% of the maximal activity was inhibited.

Recombinant NAMPT enzyme = biological target: T1, Recombinant NAMPT enzyme (Homo sapiens, UniProt P43490); assay: Inhibition of NAMPT enzymatic activity; type: biochemical; settings: for IC50: 6 hours at 37° C., NMN product detected
T1 construct: purchased MBL
T1 sequence (P43490 whole entry): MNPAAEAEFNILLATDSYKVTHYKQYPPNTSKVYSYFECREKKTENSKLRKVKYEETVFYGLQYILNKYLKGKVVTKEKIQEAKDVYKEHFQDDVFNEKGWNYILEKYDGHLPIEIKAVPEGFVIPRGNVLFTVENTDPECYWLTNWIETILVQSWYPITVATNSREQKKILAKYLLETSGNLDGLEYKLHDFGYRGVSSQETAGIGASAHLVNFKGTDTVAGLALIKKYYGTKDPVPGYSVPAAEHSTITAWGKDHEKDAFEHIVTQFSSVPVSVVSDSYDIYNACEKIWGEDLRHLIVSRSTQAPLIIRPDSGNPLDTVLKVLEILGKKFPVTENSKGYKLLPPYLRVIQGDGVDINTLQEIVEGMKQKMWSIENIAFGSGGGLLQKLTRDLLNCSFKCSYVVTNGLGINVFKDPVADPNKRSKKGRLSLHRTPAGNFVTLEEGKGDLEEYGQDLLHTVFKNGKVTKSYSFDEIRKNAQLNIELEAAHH
Experimental: Recombinant NAMPT enzyme (MBL) was briefly pre-incubated in the absence or presence of inhibitor followed by addition of nicotinamide. Enzymatic reaction was allowed to proceed for 6 hours at 37° C. Reaction was terminated and NMN reaction product detected using the method as described in: Zhang R Y, Qin Y, Lv X Q, Wang P, Xu T Y, Zhang L, Miao C Y., Anal. Biochem. 2011 May 1; 412(1):18-25.
as §2

HCT116 solid tumor model = assay: HCT116 tumor growth study; type: in vivo, Female athymic nude mice; settings: oral twice daily
Experimental: Tumor Growth Study: Female athymic nude mice (Crl:NU(Ncr)-Foxn1nu, Charles River) (n=10/group) were injected with 5×10^6 HCT116 cells, and treatment was initiated at average tumor size of 100 mm^3. 4-(1′-isopropyl-4-oxospiro[chroman-2,4′-piperidin]-6-yl)-N-((3-methylisoxazol-5-yl)methyl)benzamide and vehicle control were administered orally twice daily for 8 days. Tumor size was measured twice weekly with calipers.
4-(1′-isopropyl-4-oxospiro[chroman-2,4′-piperidin]-6-yl)-N-((3-methylisoxazol-5-yl)methyl)benzamide was also tested in the HCT116 solid tumor model.

Sup-B15 cell extract = biological target: T2, Sup-B15 cell extract (Homo sapiens, UniProt P43490); assay: Chemical proteomics pull-down from Sup-B15 cell extract; type: binding; settings: biotinylated derivative, streptavidin beads, elution with free compound, LC/MS
T2 construct: host or cells: Sup-B15 cells
T2 sequence (P43490 whole entry): as above
Experimental: Chemical proteomics. Sup-B15 cell extract was incubated with a biotinylated derivative of 4-(1′-isopropyl-4-oxospiro[chroman-2,4′-piperidin]-6-yl)-N-((3-methylisoxazol-5-yl)methyl)benzamide, followed by collection of compound/protein complexes with streptavidin beads (Invitrogen). […] Following SDS-PAGE, one prominent band was excised and identified by LC/MS as NAMPT.

[1] = system: acute T-cell leukemia (JURKAT); assay: Anti-proliferative activity on JURKAT cell line; type: cell-based; settings: Homo sapiens, 72 h, CellTiterGlo
Experimental: (§3) Leukemia/Lymphoma cell lines (ATCC) were diluted in vendor-recommended media and incubated in the absence or presence of inhibitor for 72 hours at 37° C./5% CO2 prior to viability determination using CellTiterGlo (Promega) per manufacturer's instruction. The human cell lines studied include acute T-cell leukemia (JURKAT), chronic myelogenous leukemia (K562), and B-cell acute lymphocytic leukemia (NALM6 and SUP-B15).

primary human B cells = assay: Anti-proliferative activity on B cells (anti-IgM stimulated, CellTiterGlo); type: cell-based; settings: B-cell, 72 h, anti-IgM 10 ug/ml
Experimental: as §1, with “human B” for “human T”, “with anti-IgM (10 ug/ml) (KPL)” for “with CD3/CD28 beads (Invitrogen)”
as §2

[2] = system: B-cell acute lymphocytic leukemia (NALM6); assay: Anti-proliferative activity on NALM6 cell line; type: cell-based; settings: Homo sapiens, NALM-6, 72 h, CellTiterGlo
Experimental: as §3

[3] = system: chronic myelogenous leukemia (K562); assay: Anti-proliferative activity on K562 cell line; type: cell-based; settings: Homo sapiens, K562, 72 h, CellTiterGlo
Experimental: as §3

[4] = system: B-cell acute lymphocytic leukemia (SUP-B15); assay: Anti-proliferative activity on SUP-B15 cell line; type: cell-based; settings: Homo sapiens, SUP-B15, 72 h, CellTiterGlo
Experimental: as §3

IC50 (Recombinant NAMPT enzyme) | IC50 [1] | IC50 [2] | IC50 [3] | IC50 [4] | Compound | effect of NMN on anti-proliferative activity (Sup-B15 cells) | survival (NALM6 leukemia model) | IC50 (primary human T cells) | inhibition of NAMPT enzyme activity (Recombinant NAMPT enzyme) | mortality in the treated group (HCT116 solid tumor model) | persistence of tumor growth delay after dosing was stopped (HCT116 solid tumor model) | tumor growth (HCT116 solid tumor model) | molecular target identified (Sup-B15 cell extract) | IC50 (primary human B cells)
3.5 nM | 7.04 nM | 3.56 nM | 28.3 nM | 0.606 nM | CC(C)N1CCC2(CC1)Oc1ccc(-c3ccc(C(=O)NCc4cncc(F)c4)cc3)cc1C(=O)N2C [N-((5-fluoropyridin-3-yl)methyl)-4-(1′-isopropyl-3-methyl-4-oxo-3,4-dihydrospiro[benzo[e][1,3]oxazine-2,4′-piperidin]-6-yl)benzamide] |  |  | 1000 nM |  |  |  |  |  | 6 nM
5.5 nM | 20.4 nM | 8.8 nM | 78.8 nM | 1.1 nM | CC(C)N1CCC2(CC1)CC(=O)c1cc(-c3ccc(C(=O)NCc4cncc(F)c4)cc3)ccc1O2 [N-((5-fluoropyridin-3-yl)methyl)-4-(1′-isopropyl-4-oxospiro[chroman-2,4′-piperidin]-6-yl)benzamide] |  |  | 3300 nM |  |  |  |  |  | 7.9 nM
3 nM | 7.07 nM | 3.15 nM | 18.7 nM | 0.556 nM | CCCN1CCC2(CC1)CC(=O)c1cc(-c3ccc(C(=O)NCc4cncc(F)c4)cc3)ccc1O2 [N-((5-fluoropyridin-3-yl)methyl)-4-(4-oxo-1′-propylspiro[chroman-2,4′-piperidin]-6-yl)benzamide] |  |  | 1970 nM |  |  |  |  |  | 7.4 nM
4.2 nM | 12.1 nM | 4.83 nM | 29.4 nM | 0.847 nM | COCCCCN1CCC2(CC1)CC(=O)c1cc(-c3ccc(C(=O)NCc4cncc(F)c4)cn3)ccc1O2 [N-((5-fluoropyridin-3-yl)methyl)-6-(1′-(4-methoxybutyl)-4-oxospiro[chroman-2,4′-piperidin]-6-yl)nicotinamide] |  |  | 5450 nM |  |  |  |  |  | 10.9 nM

Compound | IC50 (Recombinant NAMPT enzyme) | IC50 [1] | IC50 [2] | IC50 [3] | IC50 [4] | effect of NMN on anti-proliferative activity (Sup-B15 cells) | survival (NALM6 leukemia model) | IC50 (primary human T cells) | inhibition of NAMPT enzyme activity (Recombinant NAMPT enzyme) | mortality in the treated group (HCT116 solid tumor model) | persistence of tumor growth delay after dosing was stopped (HCT116 solid tumor model) | tumor growth (HCT116 solid tumor model) | molecular target identified (Sup-B15 cell extract) | IC50 (primary human B cells)
Cc1cc(CNC(=O)c2ccc(-c3ccc4c(c3)C(=O)CC3(CCN(C(C)C)CC3)O4)cc2)on1 [4-(1′-isopropyl-4-oxospiro[chroman-2,4′-piperidin]-6-yl)-N-((3-methylisoxazol-5-yl)methyl)benzamide] | 0.9 nM | 17.9 nM | 15 nM | 68.1 nM | 2.44 nM | counteracted by NMN | significant survival benefit in this xenograft model, in excess of the standard of care (clofarabine) | 4380 nM | potently inhibits NAMPT enzyme activity | 10% | persisted for at least one week after dosing was stopped | significant tumor growth delay | nicotinamide phosphoribosyl transferase (NAMPT) | 22.7 nM
CCCCONC(=O)c1ccc(-c2ccc3c(c2)C(=O)CC2(CCN(C(C)C)CC2)O3)nc1 [N-butoxy-6-(1′-isopropyl-4-oxospiro[chroman-2,4′-piperidin]-6-yl)nicotinamide] | 1.4 nM | 23.3 nM | 15.6 nM | 282 nM | 3.02 nM |  |  | 7370 nM |  |  |  |  |  | 45 nM
